According to ChEMBL document CHEMBL1147354, “Further bioactive cembranolide diterpenes from the gorgonian Eunicea succinea” (J Nat Prod, 1993):
≈ marks a conversion by molar mass, not a printed value.

Legend:
Assay type in all cases: functional, cell-based
HCT-116 = assay: Cytotoxicity against human HCT116 cells
MCF7 = assay: Cytotoxicity against human MCF7 cells
CCRF-CEM = assay: Cytotoxicity against human CCRF-CEM cells
SK-MEL-5 = assay: Cytotoxicity against human SK-MEL-5 cells

Structure (SMILES) | IC50 (HCT-116) [µg/mL] | IC50 (MCF7) [µg/mL] | IC50 (CCRF-CEM) [µg/mL] | IC50 (SK-MEL-5) [µg/mL]
C=C1C(=O)O[C@H]2[C@H](OC(C)=O)[C@H](C)CCC/C(C)=C/CC[C@@]3(C)O[C@@H]3C[C@@H]12 | 8 (≈ 21.2 µM) | 8 (≈ 21.2 µM) | ≥ 50 | 
C=C1C(=O)O[C@H]2[C@@H](OC(C)=O)[C@H](C)CCC/C(C)=C/CC[C@@]3(C)O[C@@H]3C[C@@H]12 | 0.4 (≈ 1.06 µM) | 6 (≈ 15.9 µM) |  | 5 (≈ 13.3 µM)
C=C1C(=O)OC2C(=O)[C@H](C)CCC/C(C)=C/CC[C@@]3(C)O[C@@H]3C[C@@H]12 (some centres undefined) [SUCCINOLIDE] | 2 (≈ 6.02 µM) | 3 (≈ 9.02 µM) | ≥ 50 | 
